We go through 7 compounds from patent publication US20020147230A1, “Aminal Diones as potassium channel openers” (priority 2001, published 2002).

One may read the Emax as the greatest response seen or fitted, relative to the assay's reference. A word on the melting point: it is the temperature of the solid-liquid transition.

Molecules are shown by their SMILES. Read-outs that look alike come from different tables or passages of the source. Where only a bound is given, the exact number is not on record here.

The test system of data set [1] is primary cultured guinea-pig urinary bladder (GPB) cells. Put plainly: Membrane hyperpolarization (MHP) assay, DiBAC(4)3 / FLIPR. The data set is classed as cell-based. Conditions: for EC50: membrane hyperpolarization in guinea-pig bladder cells. Here is the method:
Compounds were evaluated for potassium channel opening activity using primary cultured guinea-pig urinary bladder (GPB) cells.
For the preparation of urinary bladder smooth muscle cells, urinary bladders were removed from male guinea-pigs (Hartley, Charles River, Wilmington, Mass.) weighing 300-400 g and placed in ice-cold Ca^2+-free Krebs solution (composition, mM: KCl, 2.7; KH2PO4, 1.5; NaCl, 75; Na2HPO4, 9.6; Na2HPO4.7H2O, 8; MgSO4, 2; glucose, 5; HEPES, 10; pH 7.4). Cells were isolated by enzymatic dissociation as previously described with minor modifications (Klockner and Isenberg, Pflugers Arch. (1985), 405, 329-339), hereby incorporated by reference. The bladder was cut into small sections and incubated in 5 mL of the Kreb's solution containing 1 mg/mL collagenase (Sigma, St. Louis, Mont.) and 0.2 mg/mL pronase (Calbiochem, La Jolla, Calif.) with continuous stirring in a cell incubator for 30 minutes. The mixture was then centrifuged at 1300× g for 5 minutes, and the pellet resuspended in Dulbecco's PBS (GIBCO, Gaithersburg, Md.) and recentrifuged to remove residual enzyme. The cell pellet was resuspended in 5 mL growth media (composition: Dulbecco's modified Eagle's medium supplemented with 10% fetal bovine serum, 100 units/mL penicillin, 100 units/mL streptomycin and […] amphotericin B) and further dissociated by pipetting the suspension through a flame-polished Pasteur pipette and passing it through a polypropylene mesh membrane (Spectrum, Houston, Tex.). The cell density was adjusted to 100,000 cells/mL by resuspension in growth media. Cells were plated in clear-bottomed black 96-well plates (Packard) for membrane potential studies at a density of 20,000 cells/well and maintained in a cell incubator with 90% air:10% CO2 until confluent. Cells were confirmed to be of smooth muscle type by cytoskeletal staining using a monoclonal mouse anti human-α-smooth muscle actin (Biomeda, Foster City, Calif.).
Functional activity at potassium channels was measured by evaluating changes in membrane potential using the bis-oxonol dye DiBAC(4)3 (Molecular Probes) in a 96-well cell-based kinetic assay system, Fluorescent Imaging Plate Reader (FLIPR) (K. S. Schroeder et al., J. Biomed. Screen., v. 1 pp. 7581 (1996)), hereby incorporated by reference. DiBAC(4)3 is an anionic potentiometric probe which partitions between cells and extracellular solution in a membrane potential-dependent manner. With increasing membrane potential (for example, K^+ depolarization), the probe further partitions into the cell; this is measured as an increase in fluorescence due to dye interaction with intracellular lipids and proteins. Conversely, decreasing membrane potential (hyperpolarization by potassium channel openers) evokes a decrease in fluorescence.
Confluent guinea-pig urinary bladder cells cultured in black clear-bottomed 96-well plates were rinsed twice with […] assay buffer (composition, mM: HEPES, 20; NaCl, 120; KCl, 2; CaCl2, 2; MgCl2, 1; glucose, 5; pH 7.4 at 25° C.) containing 5 μM DiBAC(4)3 and incubated with […] of the buffer in a cell incubator for 30 minutes at 37° C. to ensure dye distribution across the membrane. After recording the baseline fluorescence for 5 minutes, the reference or test compounds, prepared at 10 times the concentration in the assay buffer, were added directly to the wells. Changes in fluorescence were monitored for an additional 25 minutes. Hyperpolarization responses were corrected for any background noise and were normalized to the response observed with 10 μM of the reference compound P1075 (assigned as 100%), a potent opener of smooth muscle KATP channels (Quast et al., Mol. Pharmacol., v. 43 pp. 474-481 (1993)).
Routinely, five concentrations of P1075 or test compounds (log or half-log dilutions) were evaluated and the maximal steady-state hyperpolarization values (expressed as % relative to P1075) plotted as a function of concentration. […]

Data set [2] relates to tissue strips obtained from Landrace pig bladders. Put plainly: Functional potassium channel opening activity in isolated bladder strips (field-stimulated twitch). The note with it: for EC50: amount causing 50% of the agent's maximal response, read-out: ED50 (the source's name). As to the method: Compounds were evaluated for functional potassium channel opening activity using tissue strips obtained from Landrace pig bladders.
Landrace pig bladders were obtained from female Landrace pigs of 930 kg. Landrace pigs were euthanized with an intraperitoneal injection of pentobarbital solution, Somlethal®, J. A. Webster Inc., Sterling Mass. The entire bladder was removed and immediately placed into Krebs Ringer bicarbonate solution (composition, mM: NaCl, 120; NaHCO3, 20; dextrose, 11; KCl, 4.7; CaCl2, 2.5; MgSO4, 1.5; KH2PO4, 1.2; K2EDTA, 0.01, equilibrated with 5% CO2/95% O2pH 7.4 at 37° C.). Propranolol (0.004 mM) was included in all of the assays to block β-adrenoceptors. The trigonal and dome portions were discarded. Strips 3-5 mm wide and 20 mm long were prepared from the remaining tissue cut in a circular fashion. The mucosal layer was removed. One end was fixed to a stationary glass rod and the other to a Grass FT03 transducer at a basal preload of 1.0 gram. Two parallel platinum electrodes were included in the stationary glass rod to provide field stimulation of 0.05 Hz, 0.5 milli-seconds at 20 volts. This low frequency stimulation produced a stable twitch response of 100-500 centigrams. Tissues were allowed to equilibrate for at least 60 minutes and primed with 80 mM KCl. A control concentration response curve (cumulative) was generated for each tissue using the potassium channel opener P1075 as the control agonist. […] After a 60 minute rinsing period, a concentration response curve (cumulative) was generated for the test agonist in the same fashion as that used for the control agonist P1075. The maximal efficacy of each compound (expressed as % relative to P1075) is reported. The amount of agent necessary to cause 50% of the agent's maximal response (ED50) was calculated using “ALLFIT” (DeLean et al., Am. J. Physiol., 235, E97 (1980)), hereby incorporated by reference. Agonist potencies were also expressed as an index relative to P1075. The index was calculated by dividing the ED50 for P1075 by the ED50 for the test agonist in a given tissue. Each tissue was used for only one test agonist, and the indices obtained from each tissue were averaged to provide an average index of potency.

Where [3] appears, read: Sus scrofa, Landrace pig bladder strips.
Where [4] appears, read: Sus scrofa, maximal efficacy relative to P1075, Landrace pig bladder strips, field stimulation 0.05 Hz.

As for `CCC(CC)(CCC#N)C(NC(=O)c1ccc(Cl)cc1)Nc1c(Nc2cccnc2)c(=O)c1=O` (centres unmarked) [Example 19, 4-chloro-N-(4-cyano-1-{[3,4-dioxo-2-(3-pyridinylamino)-1-cyclobuten-1-yl]amino}-2,2-diethylbutyl)benzamide], the EC50 in data set [1] (Cavia porcellus) is over 10000 nM.

With `Cc1ccc(C(=O)NC(Nc2c(Nc3cccnc3)c(=O)c2=O)C(C)(C)C)cc1` (centres unmarked) [Example 1, N-(1-{[3,4-dioxo-2-(3-pyridinylamino)-1-cyclobuten-1-yl]amino}-2,2-dimethylpropyl)-4-methylbenzamide], the EC50 in data set [1] (Cavia porcellus) was 150 nM; in data set [2] (setting [3]), 19 µM. The compound further showed an Emax in data set [2] (setting [4]) of 54%.

For `CC(C)(C)C(NC(=O)c1ccc(Cl)cc1)Nc1c(Nc2cccnc2)c(=O)c1=O` (centres unmarked) [Example 2, 4-chloro-N-(1-{[3,4-dioxo-2-(3-pyridinylamino)-1-cyclobuten-1-yl]amino}-2,2-dimethylpropyl)benzamide], the results for the EC50 in data set [1] (Cavia porcellus) and in data set [2] (setting [3]) were 160 nM and 6.9 µM, respectively. The compound further gave an Emax in data set [2] (setting [4]) of 79%.

On to `C=CCOCC(CC)(COCC=C)C(NC(=O)c1ccc(Cl)cc1)Nc1c(Nc2cccnc2)c(=O)c1=O` (centres unmarked) [Example 20, N-(2,2-bis[(allyloxy)methyl]-1-{[3,4-dioxo-2-(3-pyridinylamino)-1-cyclobuten-1-yl]amino}butyl)-4-chlorobenzamide], for which the EC50 in data set [1] (Cavia porcellus) worked out at 580 nM.

Take `CC(C)(Cc1ccccc1)C(NC(=O)c1ccc(Cl)cc1)Nc1c(Nc2cccnc2)c(=O)c1=O` (centres unmarked) [Example 18]: in data set [1] (maximal steady-state hyperpolarization, normalized to 10 μM P1075 (100%), GPB cells), the “Maximal Response (% P1075)” value stood at 97 % P1075. In addition, the EC50 in data set [1] was 510 nM; in data set [2] (Landrace pig bladder strips), 17 µM. This compound also displayed an Index in data set [2] (ED50 for P1075 divided by ED50 for the test agonist in a given tissue, averaged) of 0.055. The “Efficacy (% P1075)” value in data set [2] (maximal efficacy relative to P1075, Landrace pig bladder strips, field stimulation 0.05 Hz) was found to be 62 % P1075.

In the case of `C=CCC(C)(C)C(NC(=O)c1ccc(Cl)cc1)Nc1c(Nc2cccnc2)c(=O)c1=O` (centres unmarked) [Example 17, 4-chloro-N-(-1-{[3,4-dioxo-2-(3-pyridinylamino)-1-cyclobuten-1-yl]amino}-2,2-dimethyl-4-pentenyl)benzamide], the EC50 in data set [1] (Cavia porcellus) is 180 nM; in data set [2] (setting [3]), 5.8 µM. Moreover, the Emax in data set [2] (setting [4]) was 92%.

`CC(C)(C)C(NC(=O)c1ccc(I)cc1)NS(=O)(=O)Nc1cccnc1` (centres unmarked) [Example 34, N-(2,2-dimethyl-1-{[(3-pyridinylamino)sulfonyl]amino}propyl)-4iodobenzamide] returned a melting point of 177 to 178 °C.
